{"source": "patent US4169096A", "about": "“Antibiotic compounds” (priority 1977, dated 1979)", "key": {"[1]": {"test_system": "Bacteroides fragilis A20930", "test": "microbe, parasite or virus in culture"}, "Proteus morganii A9553": {"test_system": "Proteus morganii A9553", "test": "MIC, serial two-fold agar dilution, aerobic bacteria", "format": "cell-based", "conditions": "Morganella morganii, Nutrient agar (Eiken)"}, "[2]": {"test_system": "Acidoaminococcus fermentans ATCC 25085", "test": "microbe, parasite or virus in culture"}, "S. pyogenes A20201 [3]": {"test_system": "S. pyogenes A20201", "test": "Systemic infection with S. pyogenes in mice", "format": "in vivo", "conditions": "Streptococcus pyogenes, A20201, 120 h, just before challenge, determined after 5 days, read-out: PD50"}, "[4]": {"test_system": "Fusobacterium mortiferum ATCC 9817", "test": "microbe, parasite or virus in culture", "conditions": "ATCC9817"}, "[5]": {"test_system": "Bacteroides fragilis A20929", "test": "microbe, parasite or virus in culture"}, "C. perfringens A9635 [6]": {"test_system": "C. perfringens A9635", "test": "animal or person", "format": "in vivo, mice", "conditions": "Clostridium perfringens, A9635, in Mus musculus, 120 h, read-out: PD50"}, "[7]": {"test_system": "Peptococcus aerogenes ATCC 14963", "test": "microbe, parasite or virus in culture", "conditions": "Peptoniphilus asaccharolyticus, ATCC14963"}, "[8]": {"test_system": "Veillonella parvula ATCC 17745", "test": "microbe, parasite or virus in culture", "conditions": "ATCC17745"}, "C. perfringens A9635 [9]": {"test_system": "C. perfringens A9635", "test": "microbe, parasite or virus in culture", "format": "cell-based, Clostridium perfringens", "conditions": "inoculum size 7 × 10^6 cell/ml"}, "[10]": {"test_system": "C. perfringens or S. pyrogenes", "format": "in vivo, mice", "conditions": "mouse, in vivo"}, "[11]": {"test_system": "Klebsiella pneumoniae A9678", "test": "MIC, serial two-fold agar dilution, aerobic bacteria", "format": "cell-based"}, "[12]": {"test_system": "Bacteroides fragilis A20932", "test": "microbe, parasite or virus in culture"}, "[13]": {"test_system": "Fusobacterium varium ATCC 8501", "test": "microbe, parasite or virus in culture", "conditions": "ATCC8501"}, "[14]": {"test_system": "Serratia marcescens A20019", "test": "MIC, serial two-fold agar dilution, aerobic bacteria", "format": "cell-based"}, "[15]": {"test_system": "Neisseria gonorrhoeae A15112", "test": "MIC, serial two-fold agar dilution, aerobic bacteria", "format": "cell-based", "conditions": "GC medium (Eiken)"}, "[16]": {"test_system": "Clostridium caproicum IAM 19228", "test": "microbe, parasite or virus in culture", "conditions": "IAM19228"}, "[17]": {"test_system": "Sphaerophorus pseudonecrophorus A20013", "test": "microbe, parasite or virus in culture", "conditions": "Fusobacterium necrophorum"}, "B. fragilis A20928-1": {"test_system": "B. fragilis A20928-1", "test": "Bactericidal activity (MIC & MBC)", "format": "cell-based", "conditions": "Bacteroides fragilis, A209281; inoculum size 2.8 × 10^6 cell/ml; broth"}, "[18]": {"test_system": "Staphylococcus aureus #52-34", "test": "MIC, serial two-fold agar dilution, aerobic bacteria", "format": "cell-based", "conditions": "Nutrient agar (Eiken), read-out: MIC"}, "[19]": {"test_system": "Staphylococcus aereus Smith", "test": "MIC, serial two-fold agar dilution, aerobic bacteria", "format": "cell-based", "conditions": "Nutrient agar (Eiken), read-out: MIC"}, "[20]": {"test_system": "Neisseria meningitidis A20049", "test": "MIC, serial two-fold agar dilution, aerobic bacteria", "format": "cell-based"}, "C. perfringens A9635 [21]": {"test_system": "C. perfringens A9635", "test": "microbe, parasite or virus in culture", "format": "cell-based", "conditions": "Clostridium perfringens, A9635, 18 h"}, "Proteus mirabilis A9554": {"test_system": "Proteus mirabilis A9554", "test": "MIC, serial two-fold agar dilution, aerobic bacteria", "format": "cell-based", "conditions": "Nutrient agar (Eiken)"}, "[22]": {"test_system": "Bacillus subtilis PCI-219", "test": "MIC, serial two-fold agar dilution, aerobic bacteria", "format": "cell-based", "conditions": "PCI219, Nutrient agar (Eiken), read-out: MIC"}, "[23]": {"test_system": "Peptostreptococcus anaerobius B43", "format": "cell-based", "conditions": "GAM agar medium (Nissui)"}, "[24]": {"test_system": "Neisseria gonorrhoeae A20154", "test": "MIC, serial two-fold agar dilution, aerobic bacteria", "format": "cell-based", "conditions": "GC medium (Eiken)"}, "[25]": {"test_system": "Hemophilus influenzae A20188", "test": "MIC, serial two-fold agar dilution, aerobic bacteria", "format": "cell-based", "conditions": "Haemophilus influenzae, GC medium (Eiken)"}, "[26]": {"test_system": "Peptocuccus prevotii ATCC 9321", "test": "microbe, parasite or virus in culture"}, "S. pyogenes A20201 [27]": {"test_system": "S. pyogenes A20201", "test": "Bactericidal activity (MIC & MBC)", "format": "cell-based", "conditions": "Streptococcus pyogenes, A20201, inoculum size 6 × 10^5 cell/ml"}, "[28]": {"test_system": "Staphylococcus aureus 209P", "test": "MIC, serial two-fold agar dilution, aerobic bacteria", "format": "cell-based", "conditions": "Nutrient agar (Eiken)"}, "[29]": {"test_system": "Pseudomonas aeruginosa A9843", "test": "MIC, serial two-fold agar dilution, aerobic bacteria", "format": "cell-based", "conditions": "test medium not given"}, "B. fragilis A20926": {"test_system": "B. fragilis A20926", "test": "Localized infection with B. fragilis in mice", "format": "in vivo", "conditions": "for mean score: control 4.2; for sum of score: control 21; for infectivity level: control 100%"}}, "note": "Where two headings read alike, the source gives them in different places."}
{"smiles": "CCC[C@@H]1C[C@@H](C(=O)N[C@@H]([C@H]2O[C@H](SC)[C@H](O)[C@@H](O)[C@H]2O)[C@H](C)Cl)N(C)C1", "note": "[Clindamycin]", "values": [{"measurement": "MIC", "setting": "[1]", "value": 0.05, "unit": "µg/mL"}, {"measurement": "MIC", "setting": "Proteus morganii A9553", "value": 100, "unit": "µg/mL"}, {"measurement": "MIC", "setting": "[2]", "value": 0.05, "unit": "µg/mL"}, {"measurement": "ED50", "setting": "S. pyogenes A20201 [3]; po, NA: no activity", "value": 2.1, "unit": "mg/kg"}, {"measurement": "ED50", "setting": "S. pyogenes A20201 [3]; sc", "value": 0.3, "unit": "mg/kg"}, {"measurement": "MIC", "setting": "[4]", "value": 0.05, "unit": "µg/mL"}, {"measurement": "MIC", "setting": "[5]", "value": 0.05, "unit": "µg/mL"}, {"measurement": "ED50", "setting": "C. perfringens A9635 [6]; po", "value": 0.22, "unit": "mg/kg"}, {"measurement": "ED50", "setting": "C. perfringens A9635 [6]; sc", "value": 0.08, "unit": "mg/kg"}, {"measurement": "MIC", "setting": "[7]", "value": 0.2, "unit": "µg/mL"}, {"measurement": "MIC", "setting": "[8]", "value": 0.05, "unit": "µg/mL"}, {"measurement": "MIC in GAM agar", "setting": "C. perfringens A9635 [9]", "value": 0.0125, "unit": "µg/mL"}, {"measurement": "comparative in vivo activity", "setting": "[10]", "value": "the most active"}, {"measurement": "MIC", "setting": "[11]", "value": 100, "unit": "µg/mL"}, {"measurement": "MIC", "setting": "[12]", "value": 0.05, "unit": "µg/mL"}, {"measurement": "MIC", "setting": "[13]", "value": 0.05, "unit": "µg/mL"}, {"measurement": "MIC", "setting": "[14]", "value": 50, "unit": "µg/mL"}, {"measurement": "MIC", "setting": "[15]", "value": 0.2, "unit": "µg/mL"}, {"measurement": "MIC", "setting": "[16]", "value": 0.1, "unit": "µg/mL"}, {"measurement": "MIC", "setting": "[17]", "value": 0.05, "unit": "µg/mL"}, {"measurement": "MIC", "setting": "B. fragilis A20928-1", "value": 0.05, "unit": "µg/mL"}, {"measurement": "MIC", "setting": "[18]", "value": 0.1, "unit": "µg/mL"}, {"measurement": "MIC", "setting": "[19]", "value": 0.1, "unit": "µg/mL"}, {"measurement": "MIC", "setting": "[20]", "value": 0.05, "unit": "µg/mL"}, {"measurement": "MBC", "setting": "C. perfringens A9635 [21]", "value": 0.05, "unit": "µg/mL"}, {"measurement": "MIC", "setting": "Proteus mirabilis A9554", "value": 100, "unit": "µg/mL"}, {"measurement": "MIC", "setting": "[22]", "value": 0.8, "unit": "µg/mL"}, {"measurement": "MIC", "setting": "[23]", "value": 0.8, "unit": "µg/mL"}, {"measurement": "MIC", "setting": "[24]", "value": 0.2, "unit": "µg/mL"}, {"measurement": "MIC", "setting": "[25]", "value": 0.8, "unit": "µg/mL"}, {"measurement": "MIC", "setting": "[26]", "value": 0.1, "unit": "µg/mL"}, {"measurement": "MIC", "setting": "S. pyogenes A20201 [27]; broth", "value": 0.05, "unit": "µg/mL"}, {"measurement": "MBC", "setting": "S. pyogenes A20201 [27]; growth of less than 100 colonies per plate, 18 hours at 37° C., read-out: MBC", "value": 6.3, "unit": "µg/mL"}, {"measurement": "MIC", "setting": "[28]", "value": 0.1, "unit": "µg/mL"}, {"measurement": "MIC", "setting": "[29]", "value": "> 100", "unit": "µg/mL"}, {"measurement": "comparative in vivo activity", "setting": "B. fragilis A20926; B. fragilis localized infection", "value": "more active than Bu-2313B or Flagyl"}, {"measurement": "mean score", "setting": "B. fragilis A20926; oral, 6.3 × 5 mg/kg", "value": 2.6}, {"measurement": "sum of score", "setting": "B. fragilis A20926; oral, 6.3 × 5 mg/kg", "value": 13}, {"measurement": "infectivity level", "setting": "B. fragilis A20926; oral, 6.3 × 5 mg/kg", "value": 61.9, "unit": "%"}, {"measurement": "mean score", "setting": "B. fragilis A20926; oral, 25 × 5 mg/kg", "value": 1.8}, {"measurement": "sum of score", "setting": "B. fragilis A20926; oral, 25 × 5 mg/kg", "value": 9}, {"measurement": "infectivity level", "setting": "B. fragilis A20926; oral, 25 × 5 mg/kg", "value": 42.9, "unit": "%"}, {"measurement": "sum of score", "setting": "B. fragilis A20926; oral, 100 × 5 mg/kg", "value": 2}, {"measurement": "infectivity level", "setting": "B. fragilis A20926; oral, 100 × 5 mg/kg", "value": 9.5, "unit": "%"}, {"measurement": "mean score", "setting": "B. fragilis A20926; oral, […] 5 mg/kg", "value": 4.0}, {"measurement": "sum of score", "setting": "B. fragilis A20926; oral, […] 5 mg/kg", "value": 20}, {"measurement": "infectivity level", "setting": "B. fragilis A20926; oral, […] 5 mg/kg", "value": 95.2, "unit": "%"}, {"measurement": "mean score", "setting": "B. fragilis A20926; subcutaneous, 0.8 × 5 mg/kg", "value": 4.0}, {"measurement": "sum of score", "setting": "B. fragilis A20926; subcutaneous, 0.8 × 5 mg/kg", "value": 20}, {"measurement": "infectivity level", "setting": "B. fragilis A20926; subcutaneous, 0.8 × 5 mg/kg", "value": 95.2, "unit": "%"}, {"measurement": "mean score", "setting": "B. fragilis A20926; subcutaneous, 3.1 × 5 mg/kg", "value": 2.0}, {"measurement": "sum of score", "setting": "B. fragilis A20926; subcutaneous, 3.1 × 5 mg/kg", "value": 10}, {"measurement": "infectivity level", "setting": "B. fragilis A20926; subcutaneous, 3.1 × 5 mg/kg", "value": 47.6, "unit": "%"}, {"measurement": "mean score", "setting": "B. fragilis A20926; subcutaneous, 50 × 5 mg/kg", "value": 0.8}, {"measurement": "sum of score", "setting": "B. fragilis A20926; subcutaneous, 50 × 5 mg/kg", "value": 4}, {"measurement": "infectivity level", "setting": "B. fragilis A20926; subcutaneous, 50 × 5 mg/kg", "value": 19.0, "unit": "%"}, {"measurement": "mean score", "setting": "B. fragilis A20926; subcutaneous, […] 5 mg/kg", "value": 1.4}, {"measurement": "sum of score", "setting": "B. fragilis A20926; subcutaneous, […] 5 mg/kg", "value": 7}, {"measurement": "infectivity level", "setting": "B. fragilis A20926; subcutaneous, […] 5 mg/kg", "value": 33.3, "unit": "%"}]}
